# Laboratory results taken from publication PMC5038272, “Glutamate Racemase Is the Primary Target of β-Chloro-D-Alanine in Mycobacterium tuberculosis” (Antimicrobial Agents and Chemotherapy, 2016).
# Experiments:
# [1] = biological target: T1, alanine racemase (EcAlr) (Escherichia coli, UniProt P0A6B4); experiment: partition ratio of inactivation, purified enzyme; assay type: biochemical
# T1 construct: gene alr; recombinant EcAlr
# [2] = biological target: T2, alanine racemase (BsAlr) (Bacillus subtilis, UniProt P10725); experiment: partition ratio of inactivation, purified enzyme; assay type: biochemical
# T2 construct: gene alr1; recombinant BsAlr
# T2 sequence (P10725 1-389): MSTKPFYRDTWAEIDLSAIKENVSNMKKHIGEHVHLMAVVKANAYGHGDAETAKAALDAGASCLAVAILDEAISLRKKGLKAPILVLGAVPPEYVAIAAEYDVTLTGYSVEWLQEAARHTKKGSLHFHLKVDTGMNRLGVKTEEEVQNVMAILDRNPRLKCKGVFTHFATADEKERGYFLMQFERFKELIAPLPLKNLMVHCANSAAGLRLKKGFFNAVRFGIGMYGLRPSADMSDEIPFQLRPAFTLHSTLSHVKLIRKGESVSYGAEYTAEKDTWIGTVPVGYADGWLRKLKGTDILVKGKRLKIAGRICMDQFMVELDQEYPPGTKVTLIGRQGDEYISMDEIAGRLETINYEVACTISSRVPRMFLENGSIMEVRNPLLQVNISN
# [3] = biological target: T3, alanine racemase (MtAlr) (Mycobacterium tuberculosis, UniProt P9WQA9); experiment: partition ratio of inactivation, purified enzyme; assay type: biochemical
# T3 construct: gene alr
# T3 sequence (P9WQA9 whole entry): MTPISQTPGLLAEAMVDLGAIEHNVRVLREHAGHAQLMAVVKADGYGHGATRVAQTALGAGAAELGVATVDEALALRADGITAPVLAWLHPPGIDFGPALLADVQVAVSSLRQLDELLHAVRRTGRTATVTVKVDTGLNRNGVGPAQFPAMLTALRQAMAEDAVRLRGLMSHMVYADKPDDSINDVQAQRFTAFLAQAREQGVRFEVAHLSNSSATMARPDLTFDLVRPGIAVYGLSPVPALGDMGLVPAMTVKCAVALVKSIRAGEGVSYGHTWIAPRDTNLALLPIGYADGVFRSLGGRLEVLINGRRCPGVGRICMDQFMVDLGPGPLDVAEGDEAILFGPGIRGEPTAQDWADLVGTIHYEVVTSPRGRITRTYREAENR
# [4] = biological target: T2, alanine racemase (BsAlr); experiment: time-dependent inactivation kinetics (kinact/Ki […] ^−[…] s^−[…]), partition ratio, dialysis; assay type: biochemical
# [5] = biological target: T3, alanine racemase (MtAlr); experiment: time-dependent inactivation kinetics (poor inactivator, kinact/Ki […] ^−[…] s^−[…]), partition ratio […] dialysis, intact ESI-MS; assay type: biochemical
# [6] = biological target: T1, alanine racemase (EcAlr); experiment: time-dependent inactivation kinetics, partition ratio, dialysis, intact ESI-MS; assay type: biochemical
# [7] = biological target: T4, glutamate racemase (BsMurI) (Bacillus subtilis, UniProt P94556); experiment: time-dependent inactivation kinetics (kinact/Ki), dialysis, intact ESI-MS (+[…]), tryptic LC-MS/MS; assay type: biochemical; settings: read-out: time-dependent inactivation kinetics (kinact/Ki), dialysis, intact ESI-MS (+87)
# T4 construct: gene racE; recombinant BsMurI
# T4 sequence (P94556 whole entry): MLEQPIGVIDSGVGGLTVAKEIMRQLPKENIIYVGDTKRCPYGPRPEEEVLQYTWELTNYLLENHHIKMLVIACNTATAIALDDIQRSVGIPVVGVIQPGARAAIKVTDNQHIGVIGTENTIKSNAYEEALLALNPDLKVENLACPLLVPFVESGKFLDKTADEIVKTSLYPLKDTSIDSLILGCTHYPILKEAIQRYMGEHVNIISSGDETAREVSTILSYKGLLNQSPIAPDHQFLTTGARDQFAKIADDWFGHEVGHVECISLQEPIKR
# [8] = biological target: T4, glutamate racemase (BsMurI); experiment: intact ESI-MS covalent adduct and tryptic LC-MS/MS; assay type: binding
# T1 sequence (P0A6B4 whole entry): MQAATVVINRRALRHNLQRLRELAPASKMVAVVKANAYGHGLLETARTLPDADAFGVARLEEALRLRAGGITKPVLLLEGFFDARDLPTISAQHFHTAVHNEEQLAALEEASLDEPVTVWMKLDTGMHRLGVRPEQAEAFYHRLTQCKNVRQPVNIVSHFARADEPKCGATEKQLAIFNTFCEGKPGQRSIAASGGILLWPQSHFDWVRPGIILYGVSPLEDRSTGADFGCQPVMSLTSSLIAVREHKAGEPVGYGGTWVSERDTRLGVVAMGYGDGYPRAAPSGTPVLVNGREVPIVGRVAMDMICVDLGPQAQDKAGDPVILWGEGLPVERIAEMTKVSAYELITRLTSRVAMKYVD
smiles,measurement,setting,value
"CC(=O)OC[C@@H](N)C(=O)O [OADS, O-acetyl–D-serine]","partition ratio of inactivation, purified enzyme",[1],partition ratios were compared for the structurally and mechanistically similar Alr inhibitor O-acetyl–D-serine (OADS)
same,"partition ratio of inactivation, purified enzyme",[2],partition ratios were compared for the structurally and mechanistically similar Alr inhibitor O-acetyl–D-serine (OADS)
same,"partition ratio of inactivation, purified enzyme",[3],partition ratios were compared for the structurally and mechanistically similar Alr inhibitor O-acetyl–D-serine (OADS)
"N[C@H](CCl)C(=O)O [BCDA, β-chloro-D-alanine]",KI (inactivation),[4],130 to 230 µM
same,KI (inactivation),[5],130 to 230 µM
same,KI (inactivation),[6],130 to 230 µM
same,kinact/KI,[7],2.7 M⁻¹ s⁻¹
"N[C@@H](CCl)C(=O)O [BCLA, β-chloro-L-alanine]",intact ESI-MS covalent adduct and tryptic LC-MS/MS,[8],"BCLA modified BsMurI predominantly at C74, the cysteine residue responsible for deprotonation of an incoming D-Glu substrate"
